Measurements: US7297353B2, “Use of anemonin for treating aseptic inflammations” (priority 2000, dated 2007)
Where two headings read alike, the source gives them in different places.

Columns and labels:
[1] = system: B-lymphocytes from the whole spleen of mice; assay: LPS-induced responsive proliferation of B-lymphocytes ([3H] thymidine); assay type: cell-based; conditions: for Proliferation of B-lymphoctes LPS stimulation Average of CPM values / Proliferation of B-lymphocytes LPS stimulation Average of CPM values: LPS at 10 μg/ml, 48 hours; for inhibition of LPS-induced responsive proliferation of B-lymphocytes: final concentration range from 1 μg/ml to 100 μg/ml
Description: 5.2.1. Mice were sacrificed by removing spondyle, spleen was cut off in a sterile condition and then ground to obtain single cell suspension. After erythrocytes were got rid of the remained cells were diluted to […] with RPMI-1640 culture solution containing 10% fetal bovine serum.
5.2.2. 200 μl solution in total volume (including 100 μl the cell suspension, 50 μl sample and 50 μl ConA or LPS) was dispensed on 96-well plate.
50 μl culture solution containing 10% fetal bovine serum, instead of 50 μl sample, was added as negative control, in which the total volume was also 200 μl.
5.2.3. The cell was cultured at 37° C. and under 5% CO2 in incubator for 48 hours, and [^3H] thymidine (1.9×10^4 Bq) was added to the plate at 25 μl/well 12 hours before the end of culture.
5.2.4. The culture was continued. The plates were then stored at −20° C. in refrigeratory after the culture. The thawed cells were collected to fiberglass membrane (Nitrocellose membrane) with cell collector when detecting. After the addition of Scintillation solution, the quantity of [^3H] thymidine incorporated into DNA of cells was detected by Beta counter (MicroBeta Trilux, PerkinElmer LifeSciences). The proliferation of lymphocytes was indicated by cpm value.
Effect of the medicament on LPS-induced responsive proliferation of B-lymphocytes was examined, said B-lymphocytes were from the whole spleen of mice. LPS at 10 μg/ml final concentration was used as the stimulator to induce responsive proliferation of B-lymphocytes from the whole spleen of ICR homogenous mice (cultured in vitro for 48 hours).

injured skin = assay: Effect of anemonin on the injured skin in mice (visual irritation score); assay type: in vivo, ICR mice; design: Irritation Score: scale not given here
Description: ICR mice were utilized for the studies. The dorsal hair of mice was cut and injured 24 hour before experiment. 25% ethanol (0.5 ml) and the liniment solution of anemonin (0.05, 0.5, 5 mg/ml, 0.5 ml) were coated 4 h a day for 7 days on the area of hairless which was 2×2 cm^2 per mice. The skin irritation was evaluated by visual scoring (Table C-3 and C-4) everyday. The mice were continuously observed for 7 days after stopping applying. […] The injured skin of application 0.5 mg/ml anemonin also healed up within 7 days.

[2] = 0.05 mg/ml on injured skin, Day 1, Treatment
[3] = 0.05 mg/ml on injured skin, Day 2, Treatment
[4] = 0.05 mg/ml on injured skin, Day 3, Treatment
[5] = 0.05 mg/ml on injured skin, Day 4, Treatment
[6] = 0.05 mg/ml on injured skin, Day 5, Treatment
[7] = 0.05 mg/ml on injured skin, Day 6, Treatment
[8] = 0.05 mg/ml on injured skin, Day 7, Treatment
[9] = 0.05 mg/ml on injured skin, Day 8, Observation
[10] = 0.05 mg/ml on injured skin, Day 9, Observation
[11] = 0.05 mg/ml on injured skin, Day 10, Observation
[12] = 0.05 mg/ml on injured skin, Day 11, Observation
[13] = 0.05 mg/ml on injured skin, Day 12, Observation
[14] = 0.05 mg/ml on injured skin, Day 13, Observation
[15] = 0.05 mg/ml on injured skin, Day 14, Observation
[16] = 0.5 mg/ml on injured skin, Day 1, Treatment
[17] = 0.5 mg/ml on injured skin, Day 2, Treatment
[18] = 0.5 mg/ml on injured skin, Day 3, Treatment
[19] = 0.5 mg/ml on injured skin, Day 4, Treatment
[20] = 0.5 mg/ml on injured skin, Day 5, Treatment
[21] = 0.5 mg/ml on injured skin, Day 6, Treatment
[22] = 0.5 mg/ml on injured skin, Day 7, Treatment
[23] = 0.5 mg/ml on injured skin, Day 8, Observation
[24] = 0.5 mg/ml on injured skin, Day 9, Observation
[25] = 0.5 mg/ml on injured skin, Day 10, Observation
[26] = 0.5 mg/ml on injured skin, Day 11, Observation
[27] = 0.5 mg/ml on injured skin, Day 12, Observation
[28] = 0.5 mg/ml on injured skin, Day 13, Observation
[29] = 0.5 mg/ml on injured skin, Day 14, Observation
[30] = 5 mg/ml on injured skin, Day 2, Treatment
[31] = 5 mg/ml on injured skin, Day 3, Treatment
[32] = 5 mg/ml on injured skin, Day 4, Treatment
[33] = 5 mg/ml on injured skin, Day 5, Treatment
[34] = 5 mg/ml on injured skin, Day 6, Treatment
[35] = 5 mg/ml on injured skin, Day 7, Treatment
[36] = 5 mg/ml on injured skin, Day 8, Observation
[37] = 5 mg/ml on injured skin, Day 9, Observation
[38] = 5 mg/ml on injured skin, Day 10, Observation
[39] = 5 mg/ml on injured skin, Day 11, Observation
[40] = 5 mg/ml on injured skin, Day 12, Observation
[41] = 5 mg/ml on injured skin, Day 13, Observation
[42] = 5 mg/ml on injured skin, Day 14, Observation

SMILES: O=C1C=CC2(CCC23C=CC(=O)O3)O1 (centres unmarked) [Anemonin, anemonin]
- Proliferation of B-lymphoctes LPS stimulation Average of CPM values ([1]; 0.001 μg/ml, Table B-6): 39272 CPM
- Proliferation of B-lymphoctes LPS stimulation Average of CPM values ([1]; 0.01 μg/ml, Table B-6): 39551 CPM
- Proliferation of B-lymphoctes LPS stimulation Average of CPM values ([1]; 0.1 μg/ml, Table B-6): 39615 CPM
- Proliferation of B-lymphocytes LPS stimulation Average of CPM values ([1]; 1 μg/ml, Table B-5): 10137 CPM
- Proliferation of B-lymphoctes LPS stimulation Average of CPM values ([1]; 1 μg/ml, Table B-6): 32154 CPM
- Proliferation of B-lymphocytes LPS stimulation Average of CPM values ([1]; 10 μg/ml, Table B-5): 190 CPM
- Proliferation of B-lymphoctes LPS stimulation Average of CPM values ([1]; 10 μg/ml, Table B-6): 40840 CPM
- Proliferation of B-lymphocytes LPS stimulation Average of CPM values ([1]; 100 μg/ml, Table B-5): 164 CPM
- Proliferation of B-lymphoctes LPS stimulation Average of CPM values ([1]; 100 μg/ml, Table B-6): 24523 CPM
- inhibition at 0.001 µg/mL ([1]; Mus musculus, 0.001 μg/ml, LPS stimulation, Table B-6, read-out: General assess of activity Enhancement/Inhibition): -7%
- inhibition at 0.01 µg/mL ([1]; Mus musculus, 0.01 μg/ml, LPS stimulation, Table B-6, read-out: General assess of activity Enhancement/Inhibition): -8%
- inhibition at 0.1 µg/mL ([1]; Mus musculus, 0.1 μg/ml, LPS stimulation, Table B-6, read-out: General assess of activity Enhancement/Inhibition): -8%
- inhibition at 1 µg/mL ([1]; Mus musculus, 1 μg/ml, LPS stimulation, Table B-5, read-out: General assess of activity Enhancement/Inhibition): 33%
- inhibition at 1 µg/mL ([1]; Mus musculus, 1 μg/ml, LPS stimulation, Table B-6, read-out: General assess of activity Enhancement/Inhibition): 13%
- inhibition at 10 µg/mL ([1]; Mus musculus, 10 μg/ml, LPS stimulation, Table B-5, read-out: General assess of activity Enhancement/Inhibition): 99%
- inhibition at 10 µg/mL ([1]; Mus musculus, 10 μg/ml, LPS stimulation, Table B-6, read-out: General assess of activity Enhancement/Inhibition): -11%
- inhibition at 100 µg/mL ([1]; Mus musculus, 100 μg/ml, LPS stimulation, Table B-5, read-out: General assess of activity Enhancement/Inhibition): 99%
- inhibition at 100 µg/mL ([1]; Mus musculus, 100 μg/ml, LPS stimulation, Table B-6, read-out: General assess of activity Enhancement/Inhibition): 33%
- inhibition of LPS-induced responsive proliferation of B-lymphocytes [1]: sharply inhibited
- inhibition of LPS-induced responsive proliferation of B-lymphocytes ([1]; listed as anemonin): remarkably inhibited
- Irritation Grade (injured skin; [2]): No (No irritation <0.5)
- Irritation Score (injured skin; [2]): 0
- Irritation Grade (injured skin; [3]): No (No irritation <0.5)
- Irritation Score (injured skin; [3]): 0
- Irritation Grade (injured skin; [4]): No (No irritation <0.5)
- Irritation Score (injured skin; [4]): 0
- Irritation Grade (injured skin; [5]): No (No irritation <0.5)
- Irritation Score (injured skin; [5]): 0
- Irritation Grade (injured skin; [6]): No (No irritation <0.5)
- Irritation Score (injured skin; [6]): 0
- Irritation Grade (injured skin; [7]): No (No irritation <0.5)
- Irritation Score (injured skin; [7]): 0
- Irritation Grade (injured skin; [8]): No (No irritation <0.5)
- Irritation Score (injured skin; [8]): 0
- Irritation Grade (injured skin; [9]): No (No irritation <0.5)
- Irritation Score (injured skin; [9]): 0
- Irritation Grade (injured skin; [10]): No (No irritation <0.5)
- Irritation Score (injured skin; [10]): 0
- Irritation Grade (injured skin; [11]): No (No irritation <0.5)
- Irritation Score (injured skin; [11]): 0
- Irritation Grade (injured skin; [12]): No (No irritation <0.5)
- Irritation Score (injured skin; [12]): 0
- Irritation Grade (injured skin; [13]): No (No irritation <0.5)
- Irritation Score (injured skin; [13]): 0
- Irritation Grade (injured skin; [14]): No (No irritation <0.5)
- Irritation Score (injured skin; [14]): 0
- Irritation Grade (injured skin; [15]): No (No irritation <0.5)
- Irritation Score (injured skin; [15]): 0
- Irritation Grade (injured skin; [16]): Mild (Mide irritation <2.09)
- Irritation Score (injured skin; [16]): 1
- Irritation Grade (injured skin; [17]): No (No irritation <0.5)
- Irritation Score (injured skin; [17]): 0.25
- Irritation Grade (injured skin; [18]): No (No irritation <0.5)
- Irritation Score (injured skin; [18]): 0.25
- Irritation Grade (injured skin; [19]): No (No irritation <0.5)
- Irritation Score (injured skin; [19]): 0.25
- Irritation Grade (injured skin; [20]): No (No irritation <0.5)
- Irritation Score (injured skin; [20]): 0.125
- Irritation Grade (injured skin; [21]): No (No irritation <0.5)
- Irritation Score (injured skin; [21]): 0
- Irritation Grade (injured skin; [22]): No (No irritation <0.5)
- Irritation Score (injured skin; [22]): 0
- Irritation Grade (injured skin; [23]): No (No irritation <0.5)
- Irritation Score (injured skin; [23]): 0
- Irritation Grade (injured skin; [24]): No (No irritation <0.5)
- Irritation Score (injured skin; [24]): 0
- Irritation Grade (injured skin; [25]): No (No irritation <0.5)
- Irritation Score (injured skin; [25]): 0
- Irritation Grade (injured skin; [26]): No (No irritation <0.5)
- Irritation Score (injured skin; [26]): 0
- Irritation Grade (injured skin; [27]): No (No irritation <0.5)
- Irritation Score (injured skin; [27]): 0
- Irritation Grade (injured skin; [28]): No (No irritation <0.5)
- Irritation Score (injured skin; [28]): 0
- Irritation Grade (injured skin; [29]): No (No irritation <0.5)
- Irritation Score (injured skin; [29]): 0
- Irritation Grade (injured skin; 5 mg/ml on injured skin, Day 1, Treatment): Moderate (Moderate irritation <6.0)
- Irritation Grade (injured skin; [30]): Moderate (Moderate irritation <6.0)
- Irritation Score (injured skin; [30]): 3.4
- Irritation Grade (injured skin; [31]): Moderate (Moderate irritation <6.0)
- Irritation Score (injured skin; [31]): 3.3
- Irritation Grade (injured skin; [32]): Moderate (Moderate irritation <6.0)
- Irritation Score (injured skin; [32]): 3.3
- Irritation Grade (injured skin; [33]): Moderate (Moderate irritation <6.0)
- Irritation Score (injured skin; [33]): 3.3
- Irritation Grade (injured skin; [34]): Moderate (Moderate irritation <6.0)
- Irritation Score (injured skin; [34]): 4
- Irritation Grade (injured skin; [35]): Moderate (Moderate irritation <6.0)
- Irritation Score (injured skin; [35]): 4
- Irritation Grade (injured skin; [36]): Moderate (Moderate irritation <6.0)
- Irritation Score (injured skin; [36]): 4
- Irritation Grade (injured skin; [37]): Moderate (Moderate irritation <6.0)
- Irritation Score (injured skin; [37]): 4
- Irritation Grade (injured skin; [38]): Moderate (Moderate irritation <6.0)
- Irritation Score (injured skin; [38]): 3.5
- Irritation Grade (injured skin; [39]): Moderate (Moderate irritation <6.0)
- Irritation Score (injured skin; [39]): 3
- Irritation Grade (injured skin; [40]): Moderate (Moderate irritation <6.0)
- Irritation Score (injured skin; [40]): 2.5
- Irritation Grade (injured skin; [41]): Mild (Mide irritation <2.09)
- Irritation Score (injured skin; [41]): 2
- Irritation Grade (injured skin; [42]): Mild (Mide irritation <2.09)
- Irritation Score (injured skin; [42]): 2
- Irritation Score (injured skin; 5 mg/ml, 0.5 ml, 4 h a day for 7 days on injured skin, Day 1, Treatment): 3.1
- irritation on injured skin (injured skin; application of 0.05 mg/ml): did not cause any irritation
- irritation on injured skin (injured skin; application of 0.5 mg/ml, after 24 h application, then began to alleviate): slight erythema
- irritation on injured skin (injured skin; application of 5 mg/ml): mild to moderate erythema
